Data: ChEMBL document CHEMBL6153047, “Sulfilimines from a Medicinal Chemist's Perspective: Physicochemical and in Vitro Parameters Relevant for Drug Discovery” (J Med Chem, 2025)
≈ marks a conversion by molar mass, not a printed value.

What was measured:
[1] = Efflux ratio in human Caco-2 cells measured upto 2 hrs; type: ADME, cell-based; settings: caco-2, 2 h
[2] = Stability in human hepatocytes assessed as hepatic extraction ratio at 1 uM incubated for 6 hrs by HPLC-MS/MS analysis; type: ADME, cell-based, Hepatocyte; settings: read-out: ERH
[3] = Aqueous solubility of compound at pH 6.8 incubated for 24 hrs by LC-UV analysis; type: physicochemical; settings: buffer, pH 6.8, 24 h
[4] = Permeability across apical to basal side in human Caco-2 cells measured upto 2 hrs; type: ADME, cell-based; settings: caco-2, 2 h
[5] = Lipophilicity, logD of compound at pH 7.4 by UPLC-UV-MS analysis; type: physicochemical; settings: buffer
[6] = Dissociation constant, pKa of compound by UV spectroscopy; type: physicochemical
[7] = Stability in human liver microsomes assessed as hepatic extraction ratio at 1 uM preincubated with compound followed by NADPH addition by LC-MS/MS analysis; type: ADME, Microsome; settings: read-out: ERH
[8] = Stability in mouse liver microsomes assessed as hepatic extraction ratio at 1 uM preincubated with compound followed by NADPH addition by LC-MS/MS analysis; type: ADME, Microsome; settings: read-out: ERH
[9] = Apparent permeability of compound incubated for 5 hrs by PAMPA assay; type: ADME
[10] = Protein binding in human plasma at 1 uM incubated for 5 hrs by rapid equilibrium dialysis; type: ADME, cell-free
[11] = Chemical stability assessed as compound decomposition at pH 1 and 40 degreeC measured after 3 days by HPLC-UV analysis; type: physicochemical; settings: buffer, time 3 day, read-out: Drug degradation
[12] = Chemical stability assessed as compound decomposition at pH 7.4 and 40 degreeC measured after 3 days by HPLC-UV analysis; type: physicochemical; settings: buffer, time 3 day, read-out: Drug degradation
[13] = Chemical stability assessed as compound decomposition at pH 4 and 40 degreeC measured after 3 days by HPLC-UV analysis; type: physicochemical; settings: buffer, time 3 day, read-out: Drug degradation
[14] = Chemical stability assessed as compound decomposition at pH 10 and 40 degreeC measured after 3 days by HPLC-UV analysis; type: physicochemical; settings: buffer, time 3 day, read-out: Drug degradation

Row | Compound | Ratio [1] | hepatic extraction ratio at 6 h, 1 µM [2] | solubility [3] [µg/mL] | permeability [4] | logD [5] | pKa [6] | hepatic extraction ratio at 1 µM [7] | hepatic extraction ratio at 1 µM [8] | Papp at 5 h [9] [×10⁻⁶ cm/s] | PPB [10] [%] | degraded at 72 h [11] [%] | degraded at 72 h [12] [%] | degraded at 72 h [13] [%] | degraded at 72 h [14] [%] | logD ([5]; read-out: logD)
1 | C[S+]([O-])c1ccc(C(F)(F)F)cc1 (stereo unspecified) | 0.8 | 0.19 | > 46 | 130 10^-6 cm/s | 1.9 | – | – | – | – | – | – | – | – | – | –
2 | CS(=O)(=O)c1ccc(C(F)(F)F)cc1 | – | – | > 47 | – | 2.3 | – | – | – | – | – | – | – | – | – | –
3 | CS(=N)(=O)c1ccc(C(F)(F)F)cc1 (stereo unspecified) | – | 0.08 | > 50 | – | 1.5 | 2.5 | < 0.23 | < 0.23 | – | – | – | – | – | – | –
4 | Cc1ccc(S(=O)(=O)c2ccccc2)cc1 | 0.6 | 0.78 | – | 39 10^-6 cm/s | 3.3 | – | – | – | – | – | – | – | – | – | –
5 | Cc1ccc(NC(=O)c2ccc(P(C)(C)=O)cc2)cc1Nc1nccc(-c2cccnc2)n1 | > 100 | < 0.04 | 58 (≈ 127 µM) | – | 1.4 | – | < 0.23 | 0.35 | 0.043 | 83.8 | – | – | – | – | –
6 | CC(=O)/N=S(\c1ccc(C(F)(F)F)cc1)C1CC1 (stereo unspecified) | 0.7 | 0.1 | 38 (≈ 138 µM) | 85 10^-6 cm/s | 1.7 | – | < 0.23 | < 0.23 | – | – | 20 | 7 | 8 | 8 | –
7 | Cc1ccc(S(=N)(=O)c2ccccc2)cc1 (stereo unspecified) | 0.8 | 0.46 | > 47 | 93 10^-6 cm/s | – | 2.4 | 0.45 | 0.66 | – | – | < 0.5 | < 0.5 | < 0.5 | < 0.5 | –
8 | FC(F)(F)c1ccc(/S(=N\c2ccccc2)C2CC2)cc1 (stereo unspecified) | 0.7 | 0.73 | 41 (≈ 133 µM) | 43 10^-6 cm/s | 3.5 | 7.2 | > 0.89 | > 0.88 | – | – | 80 | 9 | 2 | 7 | –
9 | Cc1ccc(S(=O)(=NC(=O)C(C)(C)C)c2ccccc2)cc1 (stereo unspecified) | 0.7 | 0.33 | < 1 | 51 10^-6 cm/s | 4.2 | – | 0.61 | > 0.88 | – | – | 16 | 0 | 0 | 0 | –
10 | COC(=O)/N=S(\c1ccc(C(F)(F)F)cc1)C1CC1 (stereo unspecified) | 0.8 | 0.29 | 26 (≈ 89.3 µM) | 88 10^-6 cm/s | 2.1 | – | < 0.23 | 0.38 | – | – | 27 | 10 | 10 | 11 | –
11 | COc1ccc(/S(=N/C(=O)C(C)(C)C)c2ccc(C)cc2)cc1 (stereo unspecified) | 0.7 | 0.46 | 59 (≈ 179 µM) | 72 10^-6 cm/s | 4 | – | 0.44 | > 0.88 | – | – | < 0.5 | 2 | 2 | 1 | –
12 | CCOC(=O)/C(=S(/NC(=O)C(C)(C)C)c1ccccc1)P(=O)(OCC)OCC (stereo unspecified) | 1.9 | – | > 87 | 25 10^-6 cm/s | 3 | – | > 0.23 | 0.41 | – | – | 57 | < 0.5 | < 0.5 | < 0.5 | –
13 | COc1ccc(/S(C)=N\C(=O)C(C)(C)C)cc1 (stereo unspecified) | 0.8 | 0.58 | – | 69 10^-6 cm/s | 2 | – | 0.27 | 0.65 | – | – | – | – | – | – | –
14 | CC(C)(C)C(=O)/N=S(\c1ccc(C(F)(F)F)cc1)C1CC1 (stereo unspecified) | 0.7 | 0.16 | 51 (≈ 161 µM) | 90 10^-6 cm/s | 3.5 | – | < 0.23 | 0.59 | – | – | 0.9 | 4 | 4 | 3 | –
15 | Cc1ccc(S(=N)C2CC2)cc1 (stereo unspecified) | 0.7 | 0.57 | 27 (≈ 151 µM) | – | – | 10.9 | < 0.23 | < 0.23 | – | – | 8 | 0.5 | 3 | 7 | 0.3
16 | N#C/N=S(\c1ccc(C(F)(F)F)cc1)C1CC1 (stereo unspecified) | 0.7 | 0.18 | 42 (≈ 163 µM) | 100 10^-6 cm/s | 2.2 | – | < 0.23 | 0.43 | – | – | 72 | < 0.1 | 9 | < 0.1 | –
17 | CC(=O)/N=S(/c1ccccc1)c1ccc(C)cc1 (stereo unspecified) | 0.8 | 0.26 | > 52 | 85 10^-6 cm/s | 2 | – | < 0.23 | 0.63 | – | – | 22 | 4 | 5 | 4 | –
18 | COC(=O)C(C(=O)OC)=S(NC(=O)C(C)(C)C)c1ccccc1 (stereo unspecified) | < 1 | – | > 76 | > 10 10^-6 cm/s | 2.5 | – | > 0.89 | 0.63 | – | – | 58 | 6 | < 0.1 | 7 | –
19 | CCS(=N)c1ccc(C(F)(F)F)cc1 (stereo unspecified) | 0.9 | 0.17 | – | – | 0.7 | – | < 0.23 | < 0.23 | – | – | 17 | 13 | 5 | 97 | –
20 | N=S(c1ccc(C(F)(F)F)cc1)c1cccnc1 (stereo unspecified) | 0.9 | 0.08 | 49 (≈ 181 µM) | 93 10^-6 cm/s | – | – | < 0.23 | 0.26 | – | – | 4 | 3 | 1 | 1 | –
